Among the test systems are MCF7 breast; U251 CNS; HCC-2998 colon; NCI-H522 lung; NCI-H23 lung; ACHN renal; UACC-62 melanoma; UO-31 renal; K-562 leukemia; IGROV1 ovarian.
Assay in all cases: NCI tumour cell line growth inhibition, 48 h

“And” between values parts separate entries of the source, which are not always exact repeats. Equal values may be shown once.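 Values below derive from 48-hour exposures of cells grown in 96-well plates, with endpoints linearly interpolated between the two concentrations bracketing the appropriate inhibition level. Here, GI50 denotes the concentration required for 50% inhibition of growth. TGI denotes the concentration required for complete inhibition of growth.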 Where only a bound is given, the exact number is not on record here.

Take `N#Cc1c(N)c(C(=O)c2ccc3c(c2)OCCO3)n2c1CCCC2`: the GI50 was 2.28 µM in the assay with MCF7 breast; 4.07 µM in the assay with U251 CNS; 4.1 µM with HCC-2998 colon; 0.58 µM with NCI-H522 lung; 4.64 µM with NCI-H23 lung; 7.42 µM in the assay with ACHN renal. Moreover, the GI50 with UACC-62 melanoma is 5.99 µM; in the assay on UO-31 renal, 6.3 µM; with K-562 leukemia, 0.638 µM; with IGROV1 ovarian it was 6.92 µM. For the same molecule, the TGI was greater than 100 µM in the assay with MCF7 breast; greater than 100 µM in the assay on U251 CNS; greater than 93.1 µM in the assay on HCC-2998 colon; greater than 100 µM in the assay on NCI-H23 lung; greater than 100 µM in the assay with ACHN renal; greater than 100 µM with UACC-62 melanoma. The TGI in the assay with UO-31 renal, in the assay with K-562 leukemia and in the assay with IGROV1 ovarian was greater than 100 µM throughout.
Consider `CCCCCCCC(=O)Nc1nc2[nH]c(CN3CCN(Cc4cccc(I)c4)CC3)c(CN3CCN(Cc4cccc(I)c4)CC3)c2c(=O)[nH]1`, for which the GI50 with MCF7 breast is 0.793 µM; in the assay on U251 CNS, 0.923 µM; in the assay with HCC-2998 colon it was 0.823 µM; with NCI-H522 lung, 0.901 µM; with NCI-H23 lung it was 0.92 µM; with ACHN renal, 0.892 µM. In addition, the GI50 with UACC-62 melanoma was 0.901 µM; in the assay on UO-31 renal, 0.717 µM; in the assay on K-562 leukemia it was 0.455 µM; in the assay on IGROV1 ovarian it was 0.836 µM. Besides, the TGI with MCF7 breast came out at 1.51 µM; in the assay on U251 CNS it was 1.8 µM; in the assay with HCC-2998 colon, 1.54 µM; with NCI-H522 lung, 1.95 µM; in the assay on NCI-H23 lung, 1.86 µM; in the assay on ACHN renal it was 1.61 µM. In addition, the TGI with UACC-62 melanoma came out at 1.66 µM; in the assay with UO-31 renal, 1.41 µM; in the assay with K-562 leukemia it was 10.8 µM; with IGROV1 ovarian, 1.67 µM.
For `COC(=O)[C@@H](C)C[C@H](Cc1ccc(F)cc1)NC(=O)c1csc([C@@H](C[C@H](C(C)C)N(C)C(=O)[C@@H](NC(=O)[C@H]2CCCCN2C)C2CC2)OC(C)=O)n1`, the GI50 in the assay on MCF7 breast is 0.0587 µM; in the assay on U251 CNS, 0.293 µM; in the assay on HCC-2998 colon it was 2.48 µM; in the assay on NCI-H522 lung, 0.0577 µM; in the assay on NCI-H23 lung, 1.14 µM; with ACHN renal it was 1.98 µM. Besides, the GI50 is 0.137 µM with UACC-62 melanoma, 1.91 µM in the assay with UO-31 renal, 0.0605 µM with K-562 leukemia and 0.34 µM with IGROV1 ovarian. For the same molecule, the TGI was greater than 25 µM in the assay with MCF7 breast; greater than 25 µM in the assay with U251 CNS; greater than 25 µM in the assay on HCC-2998 colon; 0.213 µM with NCI-H522 lung; greater than 25 µM with NCI-H23 lung; greater than 25 µM in the assay with ACHN renal. Moreover, the TGI in the assay with UACC-62 melanoma, with UO-31 renal, in the assay on K-562 leukemia and in the assay on IGROV1 ovarian was greater than 25 µM throughout.
On to `N[C@@H](Cc1c[nH]c2ccccc12)C(=O)NC1CCN(Cc2c[nH]c3ccc(Cl)cc23)CC1`, for which the GI50 is 5.63 µM in the assay on MCF7 breast; 10.6 µM in the assay with U251 CNS; 3.3 µM in the assay with HCC-2998 colon; 10 µM with NCI-H522 lung; 15.3 µM with NCI-H23 lung; 13.4 µM in the assay on ACHN renal. For the same molecule, the GI50 is 5.56 µM in the assay with UACC-62 melanoma, 13 µM in the assay with UO-31 renal, 2.72 µM in the assay with K-562 leukemia and 8.78 µM with IGROV1 ovarian. The TGI with MCF7 breast was 20.9 µM; with U251 CNS, 22.7 µM; in the assay on HCC-2998 colon it was 13.4 µM; in the assay on NCI-H522 lung, 22.7 µM; in the assay with NCI-H23 lung, 30.7 µM; with ACHN renal, 27.7 µM. Moreover, the TGI in the assay with UACC-62 melanoma was found to be 18.3 µM; with UO-31 renal, 26.4 µM; in the assay on K-562 leukemia it was 12.5 µM; in the assay on IGROV1 ovarian, 23.4 µM.
For `C=C(C)[C@@H]1C/C=C(/COC(C)=O)CC[C@H]2O[C@@]2(C)CC/C=C(\C)CC1`, the GI50 was 81 µM in the assay on MCF7 breast; greater than 100 µM with U251 CNS; greater than 100 µM in the assay on HCC-2998 colon; greater than 100 µM with NCI-H522 lung; greater than 100 µM with NCI-H23 lung; greater than 100 µM in the assay with ACHN renal. In addition, the GI50 was greater than 100 µM in the assay with UACC-62 melanoma, 30.4 µM in the assay with UO-31 renal, 21.4 µM in the assay on K-562 leukemia and greater than 100 µM in the assay on IGROV1 ovarian. Further, the TGI in the assay with MCF7 breast, in the assay on U251 CNS, in the assay with HCC-2998 colon, in the assay on NCI-H522 lung, in the assay on NCI-H23 lung and in the assay with ACHN renal was greater than 100 µM each time. Besides, the TGI with UACC-62 melanoma was greater than 100 µM; with UO-31 renal, greater than 100 µM; in the assay with K-562 leukemia, 45.1 µM; in the assay on IGROV1 ovarian, greater than 100 µM.
Take `Oc1cccc2cccnc12`: the GI50 in the assay with MCF7 breast was 1.72 µM and 3.31 µM; with U251 CNS, 3.32 µM and 23.8 µM and 5.14 µM; in the assay with NCI-H522 lung, 0.22 µM and 0.487 µM and 1.92 µM; in the assay on NCI-H23 lung, 2.49 µM and 13.4 µM and 3.93 µM; in the assay with ACHN renal, 5.98 µM and 23.1 µM and 6 µM. For the same molecule, the TGI with MCF7 breast was 5.05 µM and > 31.6 µM; in the assay on U251 CNS it was greater than 100 µM; in the assay on HCC-2998 colon it was 28 µM and > 100 µM and 47.9 µM; with NCI-H23 lung, 18.9 µM and > 100 µM; in the assay with ACHN renal it was greater than 100 µM; in the assay on UACC-62 melanoma it was 26.8 µM and > 100 µM. The TGI with UO-31 renal is greater than 100 µM; in the assay with K-562 leukemia, 21.7 µM and > 100 µM and > 23.3 µM; with IGROV1 ovarian, 28.9 µM and 24.4 µM and > 100 µM.
On to `COc1ccc2cc(C(=O)N3CCC([C@@H](C)C(=O)NCc4ccc5c(c4)OCO5)CC3)[nH]c2c1`, for which the GI50 is greater than 100 µM in the assay on MCF7 breast; greater than 100 µM in the assay with U251 CNS; greater than 100 µM in the assay on HCC-2998 colon; greater than 100 µM with NCI-H522 lung; greater than 100 µM in the assay with NCI-H23 lung; 48.1 µM in the assay on ACHN renal. Besides, the GI50 with UACC-62 melanoma was 28.1 µM; in the assay on UO-31 renal, greater than 100 µM; in the assay with K-562 leukemia, 79.4 µM; with IGROV1 ovarian, greater than 100 µM. For the same molecule, the TGI in the assay on MCF7 breast, with U251 CNS, in the assay with HCC-2998 colon, with NCI-H522 lung, with NCI-H23 lung and in the assay on ACHN renal was greater than 100 µM in each case. The TGI with UACC-62 melanoma, with UO-31 renal, in the assay with K-562 leukemia and in the assay with IGROV1 ovarian was greater than 100 µM throughout.

Values taken from PubChem BioAssay (NCI).
